{"source": "patent US20100267626A1", "about": "“METHODS AND COMPOSITIONS FOR MEASURING WNT ACTIVATION AND FOR TREATING WNT-RELATED CANCERS” (Novartis AG, priority 2007, published 2010)", "key": {"[1]": {"biological_target": "C-terminal PARP domain of TNKS2 (GST-TNKS2 PARP) (Homo sapiens, UniProt Q9H2K2)", "sequence (Q9H2K2 934-1166)": "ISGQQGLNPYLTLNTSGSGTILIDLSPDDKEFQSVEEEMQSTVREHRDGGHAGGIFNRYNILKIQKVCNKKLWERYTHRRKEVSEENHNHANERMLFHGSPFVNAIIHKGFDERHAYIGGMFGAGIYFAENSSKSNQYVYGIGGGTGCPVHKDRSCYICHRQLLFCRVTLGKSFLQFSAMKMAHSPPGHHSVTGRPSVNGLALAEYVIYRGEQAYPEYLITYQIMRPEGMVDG", "test": "In vitro auto-PARsylation assay of TNKS2"}, "[2]": {"tested_on": "DLD-1 cells", "test": "Colony formation assay, DLD-1 cells", "assay_type": "cell-based", "conditions": "low serum growth conditions", "protocol": "FIG. 6A. […] DLD1 and RKO cells were seeded at […] in a 6-well plate in medium containing 0.5% serum and indicated compounds, and replenished with fresh medium every two days. Colonies were visualized by crystal violet staining.\nFIG. 6B. […] DLD1 cells were transfected with siRNAs against Axin1 and Axin2, and seeded at 1000 cells/well in a 6-well plate. The compound treatment was carried out as described in 6A.\n(§1) The colony formation assay was performed as follows: DLD1 and RKO cells were seeded in low serum growth medium (0.5% FBS) at 500 and 1000 cells/well, respectively, into […]. Sixteen hours after plating, compounds were added at the indicated concentrations. Medium was replenished every two days until colony formation was observed. Colonies were stained by a solution of 2 mg/ml crystal violet in buffered formalin and imaged on a Molecular Imager ChemiDoc XRS System (BioRad)."}, "[3]": {"tested_on": "Wnt3A stimulated STF activity", "test": "Wnt-responsive Super-Topflash (STF) luciferase reporter assay in HEK293 cells", "assay_type": "cell-based"}, "[4]": {"tested_on": "PARP1/2", "test": "Dose response compound competition experiment (immunoblot)", "conditions": "doses 1 nM to 100 μM"}, "[5]": {"tested_on": "TNKS", "conditions": "doses 1 nM to 100 μM"}, "[6]": {"tested_on": "Axin1 and Axin2", "test": "Axin ubiquitination in SW480 cells (immunoprecipitation/immunoblot)", "assay_type": "cell-based, human", "description": "The position that Axin1 migrates is labeled with an arrow.\nFIG. 5E. […] (IP: immunoprecipitation, TCL: total cell lysates)"}, "[7]": {"tested_on": "CRE luciferase reporter", "test": "CRE luciferase reporter in HEK293 cells (Forskolin activated)", "assay_type": "cell-based"}, "[8]": {"tested_on": "Axin1 and Axin2", "test": "Immunoblot of Axin protein levels after compound treatment", "assay_type": "cell-based, human", "conditions": "after XAV939 treatment"}, "[9]": {"tested_on": "GFP-Axin", "test": "PARsylation of exogenously expressed GFP-Axin in cells", "assay_type": "cell-based, mouse", "conditions": "anti-PAR antibody", "protocol": "FIG. 5D. In vivo PARsylation of Axin1. SW480 cells stably expressing GFP-Axin1 under control of the metallothionein promoter were incubated with Cu^2+ overnight to induce expression of GFP-Axin1. […] Lysates were harvested with RIPA buffer containing PARG inhibitor ADP-HPD (5 μM) and PARP1 inhibitor PJ34 (80 μM), immunoprecipitated with GFP antibody and analyzed by immunoblotting.\nThe SuperTopFlash (STF) methods described in at least Example 1 employed plasmids manufactured as follows: SuperTopflash reporter was generated by inserting twelve TCF binding sites into pTA-Luc (Clontech). Mouse Axin1 and its mutants were fused with either GFP or FLAG epitope at the amino termini and cloned into a retroviral vector under the control of the metallothionein promoter. Human TNKS1/2 and their mutants were tagged with FLAG epitope fused at the amino termini and cloned into a mammalian expression vector under the control of the cytomegalovirus (CMV) promoter. Drosophila Axin fused with three HA epitopes at the carboxyl terminus was cloned in a Drosophila expression vector under the control of the metallothionein promoter. A sequence encoding the amino terminal fragment of mouse Axin1 (a.a. 1-87) was cloned in a Tet-regulated expression vector pcDNA4-TO (Invitrogen). […]"}, "[10]": {"tested_on": "β-catenin", "test": "Immunoblot of cytosolic β-catenin in Wnt3A stimulated HEK293 cells", "assay_type": "cell-based"}, "[11]": {"tested_on": "TGFβ luciferase reporter", "test": "TGFβ (CAGA12) luciferase reporter in HEK293 cells", "assay_type": "cell-based"}, "[12]": {"tested_on": "Axin2", "test": "PARsylation of endogenous Axin2 in compound wash-off experiment", "conditions": "MG132 plus XAV939"}, "[13]": {"tested_on": "cell lines used in this study", "test": "Mitotic arrest phenotype in cell lines", "assay_type": "cell-based", "conditions": "low or high serum conditions", "description": "TNKS1/TNKS2 have been described to regulate mitotic progression, telomere maintenance, and GLUT4 transport. (Canudas, S., et al. (2007) Embo J 26, 4867-78 (2007); Seimiya, H., et al. (2002) J Biol Chem 277, 14116-26) In particular, TNKS1 was proposed to be required for the resolution of sister telomere association or assembly of bipolar spindles, and TNKS1 knockdown was reported to cause strong mitotic arrest."}, "[14]": {"tested_on": "NF-κB luciferase reporter", "test": "NF-κB luciferase reporter in HEK293 cells (TNFα activated)", "assay_type": "cell-based"}, "[15]": {"tested_on": "Axin-GSK3β complex", "test": "Axin-GSK3β complex formation"}, "[16]": {"tested_on": "Axin1 and Axin2 transcript", "test": "Axin transcript levels (quantitative RT-PCR)", "conditions": "after compound treatment"}, "[17]": {"biological_target": "PARP2 (Homo sapiens, UniProt Q9UGN5)", "sequence (Q9UGN5 whole entry)": "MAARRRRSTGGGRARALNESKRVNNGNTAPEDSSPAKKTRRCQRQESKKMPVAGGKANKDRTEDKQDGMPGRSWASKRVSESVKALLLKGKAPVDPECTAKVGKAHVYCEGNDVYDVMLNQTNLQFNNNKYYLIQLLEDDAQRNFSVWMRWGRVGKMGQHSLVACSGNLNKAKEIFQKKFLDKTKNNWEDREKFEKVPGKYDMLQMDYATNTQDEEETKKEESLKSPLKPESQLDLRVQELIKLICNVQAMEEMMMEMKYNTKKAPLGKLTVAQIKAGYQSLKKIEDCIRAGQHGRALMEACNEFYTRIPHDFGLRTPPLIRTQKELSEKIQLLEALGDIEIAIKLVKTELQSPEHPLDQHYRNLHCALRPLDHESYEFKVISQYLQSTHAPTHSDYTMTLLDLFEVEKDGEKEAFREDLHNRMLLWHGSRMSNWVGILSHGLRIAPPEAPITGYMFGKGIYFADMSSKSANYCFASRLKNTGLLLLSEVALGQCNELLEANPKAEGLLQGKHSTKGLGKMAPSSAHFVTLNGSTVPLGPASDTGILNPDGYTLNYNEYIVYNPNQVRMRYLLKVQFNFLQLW", "test": "iTRAQ quantitative chemical proteomics competition, HEK293 cell lysates", "assay_type": "binding", "conditions": "20 μM soluble compound, relative to DMSO"}, "[18]": {"tested_on": "RKO cells", "test": "Colony formation assay, RKO cells", "assay_type": "cell-based", "conditions": "low serum growth conditions, β-catenin independent cells", "protocol": "[…]. DLD1 and RKO cells were seeded at 500 cells/well in a 6-well plate in medium containing 0.5% serum and indicated compounds, and replenished with fresh medium every two days. Colonies were visualized by crystal violet staining.\nas §1"}, "[19]": {"tested_on": "β-catenin", "test": "Immunoblot of β-catenin and phospho-β-catenin in SW480 cells", "assay_type": "cell-based, human"}, "[20]": {"tested_on": "GFP-Axin1", "test": "GFP-Axin1 fusion construct protein levels in SW480 cell lines", "assay_type": "cell-based, mouse", "description": "FIG. 4E. The TNKS binding domain is required for XAV939-induced Axin1 protein accumulation. […] Total cell lysates were harvested and analyzed by immunoblotting.\nThe SuperTopFlash (STF) methods described in at least Example 1 employed plasmids manufactured as follows: SuperTopflash reporter was generated by inserting twelve TCF binding sites into pTA-Luc (Clontech). Mouse Axin1 and its mutants were fused with either GFP or FLAG epitope at the amino termini and cloned into a retroviral vector under the control of the metallothionein promoter. Human TNKS1/2 and their mutants were tagged with FLAG epitope fused at the amino termini and cloned into a mammalian expression vector under the control of the cytomegalovirus (CMV) promoter. Drosophila Axin fused with three HA epitopes at the carboxyl terminus was cloned in a Drosophila expression vector under the control of the metallothionein promoter. A sequence encoding the amino terminal fragment of mouse Axin1 (a.a. 1-87) was cloned in a Tet-regulated expression vector pcDNA4-TO (Invitrogen). Several proteins were cloned using Gateway technology (Invitrogen) into the expression vector pDEST15 (Invitrogen, Carlsbad, Calif.): TNKS1-P(1088-1327), TNKS2-P(934-1166), TNKS2-SP (872-1166), PARP1-P (662-1014) and PARP16-P (93-273).\nThe functional consequences of disrupting the physical interaction between Axin and TNKS were assessed. […]. […] […]."}, "[21]": {"conditions": "wash-off experiment, MG132 alone"}}, "note": "Peptide text beside a SMILES is read from it. * marks the point of attachment. Cbz = O=C(OCc1ccccc1)*"}
{"smiles": "CC(=O)N1CCc2nc(-c3ccc(C(F)(F)F)cc3)[nH]c(=O)c2C1", "note": "[LDW643]", "values": [{"measurement": "auto-PARsylation of GST-TNKS2 PARP", "setting": "[1]", "value": "not affected"}, {"measurement": "colony formation of DLD-1 cells", "setting": "[2]", "value": "did not affect"}, {"measurement": "Wnt3A stimulated STF activity", "setting": "[3]", "value": "no activity"}, {"measurement": "activity in compound competition, PARP1/2 binding", "setting": "[4]", "value": "no activity"}, {"measurement": "activity in compound competition, TNKS binding", "setting": "[5]", "value": "no activity"}]}
{"smiles": "CC(C)C[C@@H](C=O)NC(=O)[C@H](CC(C)C)NC(=O)[C@H](CC(C)C)NC(=O)OCc1ccccc1", "note": "[MG132] (Cbz-Leu-Leu-Leu-aldehyde)", "values": [{"measurement": "poly-ubiquitination of Axin1", "setting": "[6]; MG132 alone", "value": "increased significantly"}, {"measurement": "Axin2 degradation after XAV939 wash-off", "setting": "[6]; [21]", "value": "blocked"}, {"measurement": "Axin2 poly-ubiquitination after XAV939 wash-off", "setting": "[6]; [21]", "value": "strongly increased"}]}
{"smiles": "Oc1nc(-c2ccc(C(F)(F)F)cc2)nc2c1CSCC2", "note": "[XAV939]", "values": [{"measurement": "effect on CRE luciferase reporter", "setting": "[7]", "value": "did not affect"}, {"measurement": "protein levels of Axin1 and Axin2", "setting": "[8]", "value": "strongly increased"}, {"measurement": "colony formation of DLD-1 cells", "setting": "[2]", "value": "significantly inhibited"}, {"measurement": "PARsylation signal of GFP-Axin in cells", "setting": "[9]", "value": "strongly reduced"}, {"measurement": "Wnt3A-induced accumulation of β-catenin", "setting": "[10]", "value": "block"}, {"measurement": "effect on TGFβ luciferase reporter", "setting": "[11]", "value": "did not affect"}, {"measurement": "anti-PAR antibody reactive signal co-migrating with Axin2", "setting": "[12]", "value": "disappeared"}, {"measurement": "Axin1 and Axin2 poly-ubiquitination", "setting": "[6]; co-treatment of XAV939 with MG132", "value": "significantly diminished"}, {"measurement": "ubiquitination of Axin2", "setting": "[6]; wash-off experiment, co-treatment with XAV939 and MG132", "value": "completely blocked"}, {"measurement": "mitotic arrest phenotype", "setting": "[13]", "value": "did not result in any overt mitotic arrest phenotype"}, {"measurement": "effect on NF-κB luciferase reporter", "setting": "[14]", "value": "did not affect"}, {"measurement": "Axin-GSK3β complex formation", "setting": "[15]", "value": "strong increase"}, {"measurement": "transcript levels of Axin1 and Axin2", "setting": "[16]", "value": "unaffected"}, {"measurement": "binding displacement (% competition) PARP2", "setting": "[17]", "value": 88, "unit": "%"}, {"measurement": "colony formation in RKO cells", "setting": "[18]", "value": "did not affect"}, {"measurement": "β-catenin abundance", "setting": "[19]", "value": "decreased"}, {"measurement": "β-catenin phosphorylation (S33/S37/T41)", "setting": "[19]", "value": "significantly increased"}, {"measurement": "GFP-Axin1Δ19-30 protein levels", "setting": "[20]; cells expressing GFP-Axin1Δ19-30 (TBD deleted)", "value": "did not further respond"}, {"measurement": "wild-type GFP-Axin1 protein levels", "setting": "[20]; cells expressing wild-type GFP-Axin1", "value": "strongly increased"}]}
